Experimental data taken from PMC3832641, “Inhibition of Leishmania (Leishmania) amazonensis and Rat Arginases by Green Tea EGCG, (+)-Catechin and (−)-Epicatechin: A Comparative Structural Analysis of Enzyme-Inhibitor Interactions” (PLoS ONE, 2013).

Experiments:
[1] = molecular target: T1, rat liver arginase (ARG-1) (Rattus norvegicus, UniProt P07824); test: Inhibition of rat liver arginase (ARG-1); type: biochemical; conditions: for Inhibition of ARG-1: inhibitors at 10 µM or 100 µM; for inhibition at 1000 µM: inhibitors at 1000 µM
T1 construct: Rat liver arginase (ARG-1) was prepared by lysing 5 g of liver cells; from tissue; host or cells: rat liver
T1 sequence (P07824 1-323): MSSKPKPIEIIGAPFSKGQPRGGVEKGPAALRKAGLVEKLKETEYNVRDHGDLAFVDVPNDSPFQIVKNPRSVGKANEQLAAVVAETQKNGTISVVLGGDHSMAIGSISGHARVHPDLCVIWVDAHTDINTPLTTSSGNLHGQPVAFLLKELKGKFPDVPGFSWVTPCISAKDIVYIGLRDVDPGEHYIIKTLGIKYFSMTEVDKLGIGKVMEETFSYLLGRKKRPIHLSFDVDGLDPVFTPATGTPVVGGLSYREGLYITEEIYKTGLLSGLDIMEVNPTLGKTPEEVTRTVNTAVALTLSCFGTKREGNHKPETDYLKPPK

[2] = molecular target: T2, recombinant arginase from Leishmania amazonensis (ARG-L) (Leishmania amazonensis, UniProt O96394); test: biochemical
[3] = molecular target: T2, recombinant arginase from Leishmania amazonensis (ARG-L); test: ARG-L enzyme kinetics: Ki, Ki' and mechanism of inhibition (Dixon and Cornish-Bowden plots); type: biochemical; conditions: for Ki': Cornish-Bowden plot, dissociation constant of enzyme-inhibitor-substrate complex; for Ki' / Ki: mean ± SEM; for Mode of inhibition: Dixon and Cornish-Bowden plots; for Ki: Dixon plot, dissociation constant of enzyme-inhibitor complex
Procedure: All reactions were performed in CHES buffer, 50 mM, pH 9.5, containing various concentrations of the substrate L-[…].5, 25, 50 and 100 mM) at pH 9.5. Inhibitors were used at three different concentrations similar to the IC50. The different substrate and inhibitor concentrations were obtained by serial dilution. A mixture, M1, containing L-arginine (pH 9.5) at double the desired concentration and a second mixture, M2, containing the enzyme (2000 units) diluted in 125 mM CHES buffer (pH 9.5) were prepared. The reaction mixture was obtained by homogenizing 50 μL of M1, 10 μL of inhibitor and adding 40 μL of M2. The addition of M2 was synchronized every 15 seconds, followed by immediate incubation in a water bath for 15 minutes at 37°C. The urea produced was analyzed as described above. […] Each constant was determined by calculating X values at the intersection points between two lines obtained by linear regression. […] Ki and Ki' is a positive value of the calculated X (Ki = -X). For three different values of S, three lines were drawn for 1/v against i (Dixon plot) and three lines for S/v against i (Cornish-Bowden plot). In the Dixon plot, the lines intersect at a point where i = -Ki and 1/v = [1- (Ki/Ki')]/Vmax; in the Cornish-Bowden plot, they intersect at a point where i = -Ki' and S/v = KM[1- (Ki'/Ki)]/Vmax. To make wizard Ki and Ki' calculations, linear data fitting was performed using Microsoft Office Excel v.2013. The linear equations were obtained by linear regression R^2>0.85. Linear regression retrieved the linear equation y(n) = […]), which calculates the reciprocal of the ratio of reaction 1/v (y(n)) as a function of variable inhibitor concentration (x(n)). The term b(n) is the reciprocal of the maximum ratio of reaction (1/Vmax) obtained at a fixed S concentration and variable i concentration. The Dixon and Cornish-Bowden plots were constructed using a mean of each point obtained from three independent experiments performed in duplicate. Three interception points were obtained by the combination of two linear equations for each time point. Then, Ki and Ki' were calculated using equation (7) and were expressed as mean values ± SEM (standard error of the mean).

L. (L.) amazonensis = tested on: L. (L.) amazonensis; parameters: method as in PMID 22735546; conditions: cited from earlier work
[4] = tested on: L. (L.) donovani amastigotes; parameters: method as in PMID 16569852; conditions: cited from earlier work

Structure (SMILES) | Inhibition of ARG-1 [1] | inhibition at 1000 µM [1] | IC50 [2] | Ki' [3] | Mode of inhibition [3] | Ki [3] | Effect on parasite mitochondria (L. (L.) amazonensis) | Leishmanicidal activity / effect on growth of the parasite [4] | Mode of inhibition ([3]; listed as gallic acid)
O=C(OC1Cc2c(O)cc(O)cc2OC1c1cc(O)c(O)c(O)c1)c1cc(O)c(O)c(O)c1 (single isomer, unassigned; (-)) [EGCG, (−)-Epigallocatechin-3-gallate] | did not significantly inhibit | 29% | 3.8 ± 0.1 µM | 12.5 ± 0.4 µM | mixed inhibitor | 4 ± 0.5 µM | damages mitochondria, contributing to the death of the parasite | shows leishmanicidal activity | 
Oc1cc(O)c2c(c1)O[C@H](c1ccc(O)c(O)c1)[C@@H](O)C2 [(+)-catechin] | did not significantly inhibit | 26% |  |  |  |  |  | little effect on the growth of the parasite | 
Oc1cc(O)c2c(c1)O[C@H](c1ccc(O)c(O)c1)[C@H](O)C2 [(−)-epicatechin] | did not significantly inhibit | 22% |  |  |  |  |  | little effect on the growth of the parasite | 
O=C(O)c1cc(O)c(O)c(O)c1 [Gallic acid] | did not significantly inhibit | 20% | 2.2 ± 0.2 µM | 7.2 ± 1.4 µM | Noncompetitive | 7.2 ± 1.4 µM |  |  | noncompetitive inhibitor
